Results taken from patent publication US8211945B2, “Carba-sugar amine derivative and glycolipid metabolic disorder treating agent containing the same as active ingredient” (Seikagaku Corporation, priority 2001, dated 2012).
Changes are numbered by the printed parent chain.

What was measured:
Test in all cases: Mutant β-galactosidase activity in model cells, 4 days culture
Assay type in all cases: cell-based
[1] = molecular target: T1, human mutant β-galactosidase R201H (Homo sapiens, UniProt P16278, R201H)
T1 construct: expressed in transfected cells; host or cells: SV40-immortalized skin fibroblasts of a β-galactosidase-deficient knockout mouse
T1 sequence (P16278 29-677 R201H): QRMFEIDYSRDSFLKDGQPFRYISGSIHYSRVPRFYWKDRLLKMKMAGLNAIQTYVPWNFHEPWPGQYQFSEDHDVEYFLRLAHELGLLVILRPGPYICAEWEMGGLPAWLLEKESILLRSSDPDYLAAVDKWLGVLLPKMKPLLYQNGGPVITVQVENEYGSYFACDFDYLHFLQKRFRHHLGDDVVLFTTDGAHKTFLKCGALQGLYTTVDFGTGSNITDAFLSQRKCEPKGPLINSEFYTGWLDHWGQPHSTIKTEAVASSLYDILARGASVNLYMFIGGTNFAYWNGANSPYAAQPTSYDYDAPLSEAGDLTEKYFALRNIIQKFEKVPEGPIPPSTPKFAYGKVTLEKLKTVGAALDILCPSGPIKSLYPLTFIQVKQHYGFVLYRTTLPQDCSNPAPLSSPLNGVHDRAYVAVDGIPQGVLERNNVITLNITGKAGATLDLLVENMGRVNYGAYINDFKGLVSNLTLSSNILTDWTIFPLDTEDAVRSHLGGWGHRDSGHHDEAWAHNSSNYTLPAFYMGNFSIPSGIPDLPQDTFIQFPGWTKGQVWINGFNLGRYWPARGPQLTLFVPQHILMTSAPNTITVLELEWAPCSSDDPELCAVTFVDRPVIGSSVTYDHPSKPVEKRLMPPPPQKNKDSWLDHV
Text: (§1) Cultured skin fibroblasts of a β-galactosidase-deficient knockout mouse was immortalized by introducing an SV40 viral gene, and enzyme genes integrated into pSV2neo and an expression vector were also introduced simultaneously, thereby establishing a model cell (Brain Dev., 23(5), 284-287, 2001). The genes used are human normal (GP8) and mutant β-galactosidase gene Y316C, G123R (infantile GM1-gangliosidosis), R201C (juvenile GM1-gangliosidosis), 151T, T82M, R201H, R263S, R457Q (adult GM1-gangliosidosis), W273L, Y83H, R482H and R482C (Morquio-B disease) (Hum. Genet., 93(2), 109-114, 1994).
(§2) As a control substance, 0.5 mM N-(n-butyl)-deoxygalactonojirimycin (NB-DGJ: The Journal of Biological Chemistry, 269, 27108-27114 (1994)) was used, and the substance 18 of the present invention was used in an amount of 0.2 μM.
(§3) Specifically, after culturing the model cell for 4 days using a cell culture medium (10% FCS DMEM) containing the substance 18 of the present invention, the resulting cells were recovered and diluted such that the amount of protein in the suspension became a predetermined level, and then enzyme activity in the diluted suspension was measured. Using 4-methylumbelliferyl-β-D-galactopyranoside as the fluorescent substrate, the enzyme activity during 30 minutes was measured at 37° C.

[2] = molecular target: T2, human mutant β-galactosidase G123R (Homo sapiens, UniProt P16278, G123R)
T2 construct: expressed in transfected cells; host or cells: SV40-immortalized skin fibroblasts of a β-galactosidase-deficient knockout mouse
T2 sequence (P16278 29-677 G123R): T1 sequence (P16278 29-677 R201H) with G95R, H173R
Text: as §1, §2, §3

[3] = molecular target: T3, human mutant β-galactosidase R482C (Homo sapiens, UniProt P16278, R482C)
T3 construct: expressed in transfected cells; host or cells: SV40-immortalized skin fibroblasts of a β-galactosidase-deficient knockout mouse
T3 sequence (P16278 29-677 R482C): T1 sequence (P16278 29-677 R201H) with H173R, R454C
Text: as §1, §2, §3

enzyme activity, Control ([1]; transferred gene R201H, control substance 0.5 mM NB-DGJ) | enzyme activity, Control ([2]; transferred gene G123R, control substance 0.5 mM NB-DGJ) | enzyme activity, Control ([3]; transferred gene R482C, control substance 0.5 mM NB-DGJ) | Compound | enzyme activity increased in comparison with the control ([1]; R201H, 0.2 μM) [%] | Relative ratio (×100%) ([1]; R201H, substance 18 vs control) | enzyme activity ([1]; transferred gene R201H, 0.2 μM, 4 days) | Relative ratio (×100%) ([2]; G123R, substance 18 vs control) | enzyme activity ([2]; transferred gene G123R, 0.2 μM, 4 days) | Relative ratio (×100%) ([3]; R482C, substance 18 vs control) | enzyme activity ([3]; transferred gene R482C, 0.2 μM, 4 days)
19.28 | 0.13 | 0.14 | CCCCN1C[C@H](O)[C@@H](O)[C@@H](O)[C@H]1CO [Control, N-(n-butyl)-deoxygalactonojirimycin, reference compound] |  |  |  |  |  |  | 
 |  |  | CCCCCCCCN[C@@H]1C=C(CO)[C@H](O)C(O)[C@@H]1O (stereo partly drawn) [Substance 18, N-octyl-5a-carba-α-L-arabino-hexo-5(5a)-enopyranosylamine] | ≥ 150 | 4.46 ×100% | 86.05 | 1.55 ×100% | 0.20 | 4.25 ×100% | 0.62
